Values joined by “and” are separate entries in the source; they are usually repeats but may differ in a detail not shown here. Equal entries are not always repeated. Structures can show the parent of a compound that is named as a salt.
Columns and labels:
Assay type in all cases: physicochemical
[1] = Static storage at 40° C./75% RH, XRPD and HPLC post storage; details: for stability to storage at 40° C./75% RH (in words): 40° C./75% RH (elevated temperature and humidity); for HPLC purity post storage at 40° C./75% RH / XRPD post storage at 40° C./75% RH: 7 days
Protocol: Purity analysis was performed on an Agilent HP1100/Infinity II 1260 series system equipped with a diode array detector and using OpenLAB software. The full method details are provided below:
Poorly Crystalline Structure (I) (from Lot A, Free Form Pattern 1, 30 mg) was dissolved in 50 volumes of THF:Water 9:1 at 60° C. in 13 vials, stirring at 500 RPM (small amount of debris present). The solutions were then treated with 1.1 molar equivalents (90/180 μL) of selected counter-ions (Table 7). The resulting solutions were then cooled down to 5° C. at 0.1° C./min and were held at this temperature for 2 days. The suspensions were filtered and dried under suction for 20 min. The gummed sample was left with the cap off to promote crystallization. All solids obtained were initially analyzed by XRPD and stored in glass HPLC vials for subsequent analysis.
Any solids obtained were analyzed by XRPD, ^1H NMR, HPLC, TGA, DSC, XRPD post storage at 40° C./75% RH after 7 days & IC if necessary. Additional microscopy techniques (PLM & HSM) were used to complement the above analysis where appropriate.

[2] = as above; details: 7 days
[3] = High temperature solubility assessment; design: key: T = turbid solution; X = suspension; details: for observation at 60° C.: 30 mg in 50 volumes of the sample's solvent; for observation at 70° C. / observation at 80° C. / observation at 85° C.: 50 volumes
Protocol: Due to low solubility observed in the experiments of Example 2, a second solubility assessment of Structure (I) from Lot A was carried out using higher temperatures closer to the boiling points of the selected solvent systems (Table 10). Once at temperature, phosphoric acid or a base was added to either promote formation of a phosphate or Na/K salt.
Structure (I) (from Lot A, Free Form Pattern 1, 30 mg) was weighed into 6 HPLC vials and a stirrer bar added to each one. 50 volumes of different solvents were added to the samples according to Table 10 and the samples heated incrementally on a Polar Bear heating block, stirring at 400 RPM. Observations were noted as the temperature was increased, holding at each temperature for 10 minutes.

[4] = Competitive slurries of Pattern 3 and Pattern 11, XRPD; details: for XRPD after 7 days / XRPD after 17 days: competitive slurry, solvent and temperature per sample; for XRPD after 7 days: 20 vol
Protocol: A solid mixture of Structure (I) Pattern 3 (from Lot B, 300 mg) and Pattern 11 (Sample 35-1, 300 mg) was mixed for 3 hours using a turbula mixer.
The solid mixture (30 mg) was suspended in solvent (dried with molecular sieves, 600 μL, 20 vol) and either stirred in the fridge, shaken at RT or 55° C. After 7 days, an aliquot of each suspension was analyzed by XRPD. Samples that were still a mixture of forms were placed back into fridge/shakers for a further 10 days and re-analyzed (results shown in Table 36).
Competitive slurry experiments at 55° C., along with one at 5° C., were repeated using a saturated solution as the solvent mixture to minimize dissolution that may have occurred at temperatures other than room temperature.
A saturated solution of THF/Water (9:1) (5 mL) with Structure (I) (from Lot B) was equilibrated at 55° C. overnight in a shaker. The solution was filtered using 0.45 μm nylon filter before use.
A solid mixture of Pattern 3 and Pattern 11 (30 mg) was suspended in the saturated solution (600 μL, 20 vol) and either stirred in the fridge (5° C.) or shaken at 55° C. After 1 day, aliquots of the suspensions were analyzed by XRPD. Both samples were placed back into fridge/shaker. After a total of 11 days, the samples were removed from fridge/shaker. Sample 38-2 was filtered before XRPD, Sample 38-1 was pipetted onto the XRPD holder and allowed to dry before analysis (solid passed through filter).

Cc1cc(Nc2cc(N)ncn2)c(=O)n2c1C(=O)NC21CCC2(CC2)CC1 [BES Pattern 1]
stability to storage at 40° C./75% RH (in words) [1]: not stable to storage
HPLC purity post storage at 40° C./75% RH ([1]; listed as 9-6): 98.8%

Cc1cc(Nc2cc(N)ncn2)c(=O)n2c1C(=O)NC21CCC2(CC2)CC1 [CIT Pattern 1]
XRPD post storage at 40° C./75% RH ([2]; listed as 9-11): Citrate Pattern 1
HPLC purity post storage at 40° C./75% RH ([1]; listed as 9-11): 98.8%

Cc1cc(Nc2cc(N)ncn2)c(=O)n2c1C(=O)NC21CCC2(CC2)CC1 [FUM Pattern 1]
XRPD post storage at 40° C./75% RH ([2]; listed as 9-10): Fumarate Pattern 1
change of chemical purity on storage at 40° C./75% RH (in words) [1]: slight uplift
stability to storage at 40° C./75% RH (in words) [1]: stable to storage
HPLC purity post storage at 40° C./75% RH ([1]; listed as 9-10): 98.8%

Cc1cc(Nc2cc(N)ncn2)c(=O)n2c1C(=O)NC21CCC2(CC2)CC1 [Fumarate Pattern 2]
XRPD post storage at 40° C./75% RH ([2]; listed as 22-4): FUM P2 (additional peaks lost),
XRPD post storage at 40° C./75% RH [1]: loss of the additional peaks
HPLC purity post storage at 40° C./75% RH ([1]; listed as 22-4): 99.2%

Cc1cc(Nc2cc(N)ncn2)c(=O)n2c1C(=O)NC21CCC2(CC2)CC1 [HBr Pattern 1]
XRPD post storage at 40° C./75% RH ([2]; listed as 9-1): XRPD-HBr Pattern 1
change of chemical purity on storage at 40° C./75% RH (in words) [1]: slight uplift in purity
stability to storage at 40° C./75% RH (in words) ([1]; listed as 9-1): behavior but not stable to storage
XRPD post storage at 40° C./75% RH [1]: remained HBr Pattern 1
HPLC purity post storage at 40° C./75% RH ([1]; listed as 9-1): 98.7% purity

Cc1cc(Nc2cc(N)ncn2)c(=O)n2c1C(=O)NC21CCC2(CC2)CC1 [HCl Pattern 1]
XRPD post storage at 40° C./75% RH ([2]; listed as 22-1): Unchanged
stability to storage at 40° C./75% RH (in words) ([1]; listed as Chloride Pattern 1): remained stable by XRPD & HPLC
HPLC purity post storage at 40° C./75% RH ([1]; listed as 22-1): 99.3%

Cc1cc(Nc2cc(N)ncn2)c(=O)n2c1C(=O)NC21CCC2(CC2)CC1 [HCl Pattern 4]
stability to storage at 40° C./75% RH (in words) [1]: instability to storage
HPLC purity post storage at 40° C./75% RH ([1]; listed as 13-2): frit are not present. 95.7% purity

Cc1cc(Nc2cc(N)ncn2)c(=O)n2c1C(=O)NC21CCC2(CC2)CC1 [HCl Patterns 1 and 3]
XRPD post storage at 40° C./75% RH ([2]; listed as 9-2): No change by XRPD
stability to storage at 40° C./75% RH (in words) [1]: stable to storage
HPLC purity post storage at 40° C./75% RH ([1]; listed as 9-2): 97.7% purity

Cc1cc(Nc2cc(N)ncn2)c(=O)n2c1C(=O)NC21CCC2(CC2)CC1 [MES Pattern 2]
XRPD post storage at 40° C./75% RH ([2]; listed as 21-1): storage, with no observed impact
XRPD post storage at 40° C./75% RH ([2]; listed as 22-6): Unchanged
HPLC purity post storage at 40° C./75% RH ([1]; listed as 22-6): 99.1%
change of chemical purity on storage at 40° C./75% RH (in words) ([1]; listed as 21-1): Notable increase in purity after

Cc1cc(Nc2cc(N)ncn2)c(=O)n2c1C(=O)NC21CCC2(CC2)CC1 [PHO Pattern 2]
HPLC purity post storage at 40° C./75% RH [1]: crystallinity. 97.0% purity observed.
XRPD post storage at 40° C./75% RH [1]: lost a significant amount of crystallinity

Cc1cc(Nc2cc(N)ncn2)c(=O)n2c1C(=O)NC21CCC2(CC2)CC1 [Pattern 2]
HPLC purity post storage at 40° C./75% RH ([1]; listed as 9-12): 98.8%

Cc1cc(Nc2cc(N)ncn2)c(=O)n2c1C(=O)NC21CCC2(CC2)CC1 [Pattern 5]
XRPD post storage at 40° C./75% RH ([2]; listed as 30-2): transition completed and 7 days: Change in form-Pattern 3

Cc1cc(Nc2cc(N)ncn2)c(=O)n2c1C(=O)NC21CCC2(CC2)CC1 [Pattern 10-1]
observation at 60° C. [3]: X
observation at 70° C. [3]: X

Cc1cc(Nc2cc(N)ncn2)c(=O)n2c1C(=O)NC21CCC2(CC2)CC1 [Pattern 10-2]
observation at 60° C. [3]: X
observation at 70° C. [3]: X
observation at 80° C. [3]: X
observation at 85° C. [3]: X

Cc1cc(Nc2cc(N)ncn2)c(=O)n2c1C(=O)NC21CCC2(CC2)CC1 [Pattern 10-3]
observation at 60° C. [3]: X
observation at 70° C. [3]: X
observation at 80° C. [3]: X
observation at 85° C. [3]: X

Cc1cc(Nc2cc(N)ncn2)c(=O)n2c1C(=O)NC21CCC2(CC2)CC1 [Pattern 10-4]
observation at 60° C. [3]: X
observation at 70° C. [3]: X
observation at 80° C. [3]: X
observation at 85° C. [3]: X

Cc1cc(Nc2cc(N)ncn2)c(=O)n2c1C(=O)NC21CCC2(CC2)CC1 [Pattern 10-5]
observation at 60° C. [3]: X
observation at 70° C. [3]: X
observation at 80° C. [3]: X
observation at 85° C. [3]: X

Cc1cc(Nc2cc(N)ncn2)c(=O)n2c1C(=O)NC21CCC2(CC2)CC1 [Pattern 10-6]
observation at 60° C. [3]: T
observation at 70° C. [3]: T

Cc1cc(Nc2cc(N)ncn2)c(=O)n2c1C(=O)NC21CCC2(CC2)CC1 [Pattern 10-7]
observation at 60° C. [3]: T
observation at 70° C. [3]: T

Cc1cc(Nc2cc(N)ncn2)c(=O)n2c1C(=O)NC21CCC2(CC2)CC1 [Pattern 10-8]
observation at 60° C. [3]: T
observation at 70° C. [3]: T

Cc1cc(Nc2cc(N)ncn2)c(=O)n2c1C(=O)NC21CCC2(CC2)CC1 [Pattern 22-8]
HPLC purity post storage at 40° C./75% RH [1]: 99.4%
XRPD post storage at 40° C./75% RH [1]: SUL P2

Cc1cc(Nc2cc(N)ncn2)c(=O)n2c1C(=O)NC21CCC2(CC2)CC1 [Pattern 36-1]
XRPD after 7 days [4]: Pattern 11

Cc1cc(Nc2cc(N)ncn2)c(=O)n2c1C(=O)NC21CCC2(CC2)CC1 [Pattern 36-2]
XRPD after 7 days [4]: Pattern 11

Cc1cc(Nc2cc(N)ncn2)c(=O)n2c1C(=O)NC21CCC2(CC2)CC1 [Pattern 36-3]
XRPD after 7 days [4]: Patterns 3 and 11
XRPD after 17 days [4]: Patterns 3 and 11

Cc1cc(Nc2cc(N)ncn2)c(=O)n2c1C(=O)NC21CCC2(CC2)CC1 [Pattern 36-4]
XRPD after 7 days [4]: Pattern 11

Cc1cc(Nc2cc(N)ncn2)c(=O)n2c1C(=O)NC21CCC2(CC2)CC1 [Pattern 36-5]
XRPD after 7 days [4]: Pattern 11

Cc1cc(Nc2cc(N)ncn2)c(=O)n2c1C(=O)NC21CCC2(CC2)CC1 [Pattern 36-6]
XRPD after 7 days [4]: Pattern 11

Cc1cc(Nc2cc(N)ncn2)c(=O)n2c1C(=O)NC21CCC2(CC2)CC1 [Pattern 36-7]
XRPD after 7 days [4]: Pattern 11

Cc1cc(Nc2cc(N)ncn2)c(=O)n2c1C(=O)NC21CCC2(CC2)CC1 [Pattern 36-11]
XRPD after 7 days [4]: Pattern 11 + extra

Cc1cc(Nc2cc(N)ncn2)c(=O)n2c1C(=O)NC21CCC2(CC2)CC1 [Pattern 36-12]
XRPD after 7 days [4]: Pattern 11

Cc1cc(Nc2cc(N)ncn2)c(=O)n2c1C(=O)NC21CCC2(CC2)CC1 [Pattern 36-13]
XRPD after 7 days [4]: Patterns 3 and 11
XRPD after 17 days [4]: Patterns 3 and 11

Cc1cc(Nc2cc(N)ncn2)c(=O)n2c1C(=O)NC21CCC2(CC2)CC1 [Pattern 36-14]
XRPD after 7 days [4]: Patterns 3 and 11
XRPD after 17 days [4]: Patterns 3 and 11

Cc1cc(Nc2cc(N)ncn2)c(=O)n2c1C(=O)NC21CCC2(CC2)CC1 [Pattern 36-15]
XRPD after 7 days [4]: Patterns 3 and 11
XRPD after 17 days [4]: Pattern 11

Cc1cc(Nc2cc(N)ncn2)c(=O)n2c1C(=O)NC21CCC2(CC2)CC1 [Pattern 38-1]
XRPD after 1 day ([4]; slurry in saturated THF/Water (9:1) solution): Patterns 3 and 11 +

Cc1cc(Nc2cc(N)ncn2)c(=O)n2c1C(=O)NC21CCC2(CC2)CC1 [TOS Pattern 1]
XRPD post storage at 40° C./75% RH [1]: large loss in crystallinity
HPLC purity post storage at 40° C./75% RH ([1]; listed as 9-4): 99.3%
